Assay results: patent US6518243B1, “Desleucyl glycopeptide antibiotics and methods of making same” (Trustees of Princeton University, priority 1999, dated 2003)

Tests used:
Experiment in all cases: Zone of inhibition screen, 96 well agar array format
Assay type in all cases: cell-based
Parameters in all cases: scale not given here
E. faecalis (CL 4877) = tested on: E. faecalis (CL 4877)
In short: (§1)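 Antibacterial testing on a 96-well agar array; each compound screened separately.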

S. aureus (ATCC 29213) = tested on: S. aureus (ATCC 29213)
In short: as §1

[1] = tested on: S. epidermidis (ATCC 12228)
In short: as §1

[2] = zone of inhibition relative to 1 mg/ml stock solution of p-chlorobiphenylvancomycin
[3] = zone of inhibition relative to 1 mg/ml p-chlorobiphenylvancomycin

Row | Compound | zone score, E. faecalis CL 4877 (E. faecalis (CL 4877); [2]) | zone score, S. aureus ATCC 29213 (S. aureus (ATCC 29213); [2]) | zone score, S. epidermidis ATCC 12228 [1, 2] | zone score, E. faecalis CL 4877 (E. faecalis (CL 4877); [3]) | zone score, S. aureus ATCC 29213 (S. aureus (ATCC 29213); [3]) | zone score, S. epidermidis ATCC 12228 [1, 3]
1 | CC1OC(OC2C(Oc3c4cc5cc3Oc3ccc(cc3Cl)C(O)C3NC(=O)C(NC(=O)C5NC(=O)C(CC(N)=O)NC(=O)C(NC(=O)C5CNCCO5)C(O)c5ccc(c(Cl)c5)O4)c4ccc(O)c(c4)-c4c(O)cc(O)cc4C(C(=O)O)NC3=O)OC(CO)C(O)C2O)CC(C)(NCc2ccc(-c3ccc(Cl)cc3)cc2)C1O (mixture of isomers) [Compound 23] | 2 | 2 | 2 | – | – | –
2 | CC(=O)N1CCCC1C(=O)NC1C(=O)NC(CC(N)=O)C(=O)NC2C(=O)NC3C(=O)NC(C(=O)NC(C(=O)O)c4cc(O)cc(O)c4-c4cc3ccc4O)C(O)c3ccc(c(Cl)c3)Oc3cc2cc(c3OC2OC(CO)C(O)C(O)C2OC2CC(C)(NCc3ccc(-c4ccc(Cl)cc4)cc3)C(O)C(C)O2)Oc2ccc(cc2Cl)C1O (mixture of isomers) [Compound 176] | 2 | 2 | 2 | – | – | –
3 | CC(NC(N)=O)C(=O)NC1C(=O)NC(CC(N)=O)C(=O)NC2C(=O)NC3C(=O)NC(C(=O)NC(C(=O)O)c4cc(O)cc(O)c4-c4cc3ccc4O)C(O)c3ccc(c(Cl)c3)Oc3cc2cc(c3OC2OC(CO)C(O)C(O)C2OC2CC(C)(NCc3ccc(-c4ccc(Cl)cc4)cc3)C(O)C(C)O2)Oc2ccc(cc2Cl)C1O (mixture of isomers) [Compound 206] | – | – | – | 2 | 2 | 2
4 | CCC(O)C(=O)NC1C(=O)NC(CC(N)=O)C(=O)NC2C(=O)NC3C(=O)NC(C(=O)NC(C(=O)O)c4cc(O)cc(O)c4-c4cc3ccc4O)C(O)c3ccc(c(Cl)c3)Oc3cc2cc(c3OC2OC(CO)C(O)C(O)C2OC2CC(C)(NCc3ccc(-c4ccc(Cl)cc4)cc3)C(O)C(C)O2)Oc2ccc(cc2Cl)C1O (mixture of isomers) [Compound 286] | – | – | – | 2 | 2 | 2
5 | CC(=O)NC(Cc1cnc[nH]1)C(=O)NC1C(=O)NC(CC(N)=O)C(=O)NC2C(=O)NC3C(=O)NC(C(=O)NC(C(=O)O)c4cc(O)cc(O)c4-c4cc3ccc4O)C(O)c3ccc(c(Cl)c3)Oc3cc2cc(c3OC2OC(CO)C(O)C(O)C2OC2CC(C)(NCc3ccc(-c4ccc(Cl)cc4)cc3)C(O)C(C)O2)Oc2ccc(cc2Cl)C1O (mixture of isomers) [Compound 324] | – | – | – | 2 | 2 | 2
6 | CSCCC(NC=O)C(=O)NC1C(=O)NC(CC(N)=O)C(=O)NC2C(=O)NC3C(=O)NC(C(=O)NC(C(=O)O)c4cc(O)cc(O)c4-c4cc3ccc4O)C(O)c3ccc(c(Cl)c3)Oc3cc2cc(c3OC2OC(CO)C(O)C(O)C2OC2CC(C)(NCc3ccc(-c4ccc(Cl)cc4)cc3)C(O)C(C)O2)Oc2ccc(cc2Cl)C1O (mixture of isomers) [Compound 326] | – | – | – | 2 | 2 | 2
7 | CSCCC(N)C(O)CC(=O)NC1C(=O)NC(CC(N)=O)C(=O)NC2C(=O)NC3C(=O)NC(C(=O)NC(C(=O)O)c4cc(O)cc(O)c4-c4cc3ccc4O)C(O)c3ccc(c(Cl)c3)Oc3cc2cc(c3OC2OC(CO)C(O)C(O)C2OC2CC(C)(NCc3ccc(-c4ccc(Cl)cc4)cc3)C(O)C(C)O2)Oc2ccc(cc2Cl)C1O (stereo not shown) [Compound 31] | – | 2 | 2 | – | – | –
8 | CC(N)C(=O)NC(C)C(=O)NC1C(=O)NC(CC(N)=O)C(=O)NC2C(=O)NC3C(=O)NC(C(=O)NC(C(=O)O)c4cc(O)cc(O)c4-c4cc3ccc4O)C(O)c3ccc(c(Cl)c3)Oc3cc2cc(c3OC2OC(CO)C(O)C(O)C2OC2CC(C)(NCc3ccc(-c4ccc(Cl)cc4)cc3)C(O)C(C)O2)Oc2ccc(cc2Cl)C1O (stereo not shown) [Compound 35] | 2 | 2 | 2 | – | – | –
9 | COc1cc(OC)c(CNC(=O)CC(N)C(=O)NC2C(=O)NC(CC(N)=O)C(=O)NC3C(=O)NC4C(=O)NC(C(=O)NC(C(=O)O)c5cc(O)cc(O)c5-c5cc4ccc5O)C(O)c4ccc(c(Cl)c4)Oc4cc3cc(c4OC3OC(CO)C(O)C(O)C3OC3CC(C)(NCc4ccc(-c5ccc(Cl)cc5)cc4)C(O)C(C)O3)Oc3ccc(cc3Cl)C2O)c(OC)c1 (stereo not shown) [Compound 45] | 2 | 2 | 2 | – | – | –
10 | CC1OC(OC2C(Oc3c4cc5cc3Oc3ccc(cc3Cl)C(O)C3NC(=O)C(NC(=O)C5NC(=O)C(CC(N)=O)NC(=O)C(NC(=O)CC(N)C(N)=O)C(O)c5ccc(c(Cl)c5)O4)c4ccc(O)c(c4)-c4c(O)cc(O)cc4C(C(=O)O)NC3=O)OC(CO)C(O)C2O)CC(C)(NCc2ccc(-c3ccc(Cl)cc3)cc2)C1O (stereo not shown) [Compound 74] | – | 2 | 2 | – | – | –
11 | CC1OC(OC2C(Oc3c4cc5cc3Oc3ccc(cc3Cl)C(O)C3NC(=O)C(NC(=O)C5NC(=O)C(CC(N)=O)NC(=O)C(NC(=O)C(N)CCCCNC(N)=O)C(O)c5ccc(c(Cl)c5)O4)c4ccc(O)c(c4)-c4c(O)cc(O)cc4C(C(=O)O)NC3=O)OC(CO)C(O)C2O)CC(C)(NCc2ccc(-c3ccc(Cl)cc3)cc2)C1O (stereo not shown) [Compound 78] | – | 2 | 2 | – | – | –
12 | C=CCOC(=O)NCCC(N)C(=O)NC1C(=O)NC(CC(N)=O)C(=O)NC2C(=O)NC3C(=O)NC(C(=O)NC(C(=O)O)c4cc(O)cc(O)c4-c4cc3ccc4O)C(O)c3ccc(c(Cl)c3)Oc3cc2cc(c3OC2OC(CO)C(O)C(O)C2OC2CC(C)(NCc3ccc(-c4ccc(Cl)cc4)cc3)C(O)C(C)O2)Oc2ccc(cc2Cl)C1O (stereo not shown) [Compound 93] | – | 2 | 2 | – | – | –
13 | CC(=O)OCC(=O)NC1C(=O)NC(CC(N)=O)C(=O)NC2C(=O)NC3C(=O)NC(C(=O)NC(C(=O)O)c4cc(O)cc(O)c4-c4cc3ccc4O)C(O)c3ccc(c(Cl)c3)Oc3cc2cc(c3OC2OC(CO)C(O)C(O)C2OC2CC(C)(NCc3ccc(-c4ccc(Cl)cc4)cc3)C(O)C(C)O2)Oc2ccc(cc2Cl)C1O (stereo not shown) [Compound 117] | – | 2 | 2 | – | – | –
14 | CC1OC(OC2C(Oc3c4cc5cc3Oc3ccc(cc3Cl)C(O)C3NC(=O)C(NC(=O)C5NC(=O)C(CC(N)=O)NC(=O)C(NC(=O)c5cc(=O)[nH]c(=O)[nH]5)C(O)c5ccc(c(Cl)c5)O4)c4ccc(O)c(c4)-c4c(O)cc(O)cc4C(C(=O)O)NC3=O)OC(CO)C(O)C2O)CC(C)(NCc2ccc(-c3ccc(Cl)cc3)cc2)C1O (stereo not shown) [Compound 198] | – | 2 | 2 | – | – | –
15 | CC1OC(OC2C(Oc3c4cc5cc3Oc3ccc(cc3Cl)C(O)C3NC(=O)C(NC(=O)C5NC(=O)C(CC(N)=O)NC(=O)C(NC(=O)C5CCC(=O)O5)C(O)c5ccc(c(Cl)c5)O4)c4ccc(O)c(c4)-c4c(O)cc(O)cc4C(C(=O)O)NC3=O)OC(CO)C(O)C2O)CC(C)(NCc2ccc(-c3ccc(Cl)cc3)cc2)C1O (stereo not shown) [Compound 227] | – | – | – | – | 2 | 2
16 | CC1OC(OC2C(Oc3c4cc5cc3Oc3ccc(cc3Cl)C(O)C3NC(=O)C(NC(=O)C5NC(=O)C(CC(N)=O)NC(=O)C(NC(=O)c5ccccc5F)C(O)c5ccc(c(Cl)c5)O4)c4ccc(O)c(c4)-c4c(O)cc(O)cc4C(C(=O)O)NC3=O)OC(CO)C(O)C2O)CC(C)(NCc2ccc(-c3ccc(Cl)cc3)cc2)C1O (stereo not shown) [Compound 238] | – | – | – | – | 2 | 2
17 | CC1OC(OC2C(Oc3c4cc5cc3Oc3ccc(cc3Cl)C(O)C3NC(=O)C(NC(=O)C5NC(=O)C(CC(N)=O)NC(=O)C(NC(=O)c5ccco5)C(O)c5ccc(c(Cl)c5)O4)c4ccc(O)c(c4)-c4c(O)cc(O)cc4C(C(=O)O)NC3=O)OC(CO)C(O)C2O)CC(C)(NCc2ccc(-c3ccc(Cl)cc3)cc2)C1O (stereo not shown) [Compound 240] | – | – | – | – | 2 | 2
18 | CC1OC(OC2C(Oc3c4cc5cc3Oc3ccc(cc3Cl)C(O)C3NC(=O)C(NC(=O)C5NC(=O)C(CC(N)=O)NC(=O)C(NC(=O)C=Cc5ccco5)C(O)c5ccc(c(Cl)c5)O4)c4ccc(O)c(c4)-c4c(O)cc(O)cc4C(C(=O)O)NC3=O)OC(CO)C(O)C2O)CC(C)(NCc2ccc(-c3ccc(Cl)cc3)cc2)C1O (stereo not shown) [Compound 244] | – | – | – | – | 2 | 2
19 | CC1OC(OC2C(Oc3c4cc5cc3Oc3ccc(cc3Cl)C(O)C3NC(=O)C(NC(=O)C5NC(=O)C(CC(N)=O)NC(=O)C(NC(=O)c5ccc(O)cc5)C(O)c5ccc(c(Cl)c5)O4)c4ccc(O)c(c4)-c4c(O)cc(O)cc4C(C(=O)O)NC3=O)OC(CO)C(O)C2O)CC(C)(NCc2ccc(-c3ccc(Cl)cc3)cc2)C1O (stereo not shown) [Compound 271] | – | – | – | – | 2 | 2
20 | CC1OC(OC2C(Oc3c4cc5cc3Oc3ccc(cc3Cl)C(O)C3NC(=O)C(NC(=O)C5NC(=O)C(CC(N)=O)NC(=O)C(NC(=O)c5nccnc5C(N)=O)C(O)c5ccc(c(Cl)c5)O4)c4ccc(O)c(c4)-c4c(O)cc(O)cc4C(C(=O)O)NC3=O)OC(CO)C(O)C2O)CC(C)(NCc2ccc(-c3ccc(Cl)cc3)cc2)C1O (stereo not shown) [Compound 283] | – | – | – | – | 2 | 2
21 | CC1OC(OC2C(Oc3c4cc5cc3Oc3ccc(cc3Cl)C(O)C3NC(=O)C(NC(=O)C5NC(=O)C(CC(N)=O)NC(=O)C(NC(=O)C=NNC(N)=O)C(O)c5ccc(c(Cl)c5)O4)c4ccc(O)c(c4)-c4c(O)cc(O)cc4C(C(=O)O)NC3=O)OC(CO)C(O)C2O)CC(C)(NCc2ccc(-c3ccc(Cl)cc3)cc2)C1O (stereo not shown) [Compound 289] | – | – | – | – | 2 | 2
22 | CC1OC(OC2C(Oc3c4cc5cc3Oc3ccc(cc3Cl)C(O)C3NC(=O)C(NC(=O)C5NC(=O)C(CC(N)=O)NC(=O)C(NC(=O)C5CCCO5)C(O)c5ccc(c(Cl)c5)O4)c4ccc(O)c(c4)-c4c(O)cc(O)cc4C(C(=O)O)NC3=O)OC(CO)C(O)C2O)CC(C)(NCc2ccc(-c3ccc(Cl)cc3)cc2)C1O (stereo not shown) [Compound 316] | – | – | – | – | 2 | 2
